# In ChEMBL document CHEMBL3870360, “GluN2A-Selective Pyridopyrimidinone Series of NMDAR Positive Allosteric Modulators with an Improved in Vivo Profile” (ACS Med Chem Lett, 2017):
# Biological target: T1, Glutamate receptor 2 (Homo sapiens, UniProt P42262)
# Test: Positive allosteric modulation of human GluA2 receptor flip isoform assessed as increase in glutamate-induced calcium flux at 125 uM measured at time interval of 5 mins in presence of saturating glycine by calcium dye-based fluorescence assay relative to glutamate
# Format: single protein
# Details: not given
# T1 sequence (P42262 whole entry, canonical isoform): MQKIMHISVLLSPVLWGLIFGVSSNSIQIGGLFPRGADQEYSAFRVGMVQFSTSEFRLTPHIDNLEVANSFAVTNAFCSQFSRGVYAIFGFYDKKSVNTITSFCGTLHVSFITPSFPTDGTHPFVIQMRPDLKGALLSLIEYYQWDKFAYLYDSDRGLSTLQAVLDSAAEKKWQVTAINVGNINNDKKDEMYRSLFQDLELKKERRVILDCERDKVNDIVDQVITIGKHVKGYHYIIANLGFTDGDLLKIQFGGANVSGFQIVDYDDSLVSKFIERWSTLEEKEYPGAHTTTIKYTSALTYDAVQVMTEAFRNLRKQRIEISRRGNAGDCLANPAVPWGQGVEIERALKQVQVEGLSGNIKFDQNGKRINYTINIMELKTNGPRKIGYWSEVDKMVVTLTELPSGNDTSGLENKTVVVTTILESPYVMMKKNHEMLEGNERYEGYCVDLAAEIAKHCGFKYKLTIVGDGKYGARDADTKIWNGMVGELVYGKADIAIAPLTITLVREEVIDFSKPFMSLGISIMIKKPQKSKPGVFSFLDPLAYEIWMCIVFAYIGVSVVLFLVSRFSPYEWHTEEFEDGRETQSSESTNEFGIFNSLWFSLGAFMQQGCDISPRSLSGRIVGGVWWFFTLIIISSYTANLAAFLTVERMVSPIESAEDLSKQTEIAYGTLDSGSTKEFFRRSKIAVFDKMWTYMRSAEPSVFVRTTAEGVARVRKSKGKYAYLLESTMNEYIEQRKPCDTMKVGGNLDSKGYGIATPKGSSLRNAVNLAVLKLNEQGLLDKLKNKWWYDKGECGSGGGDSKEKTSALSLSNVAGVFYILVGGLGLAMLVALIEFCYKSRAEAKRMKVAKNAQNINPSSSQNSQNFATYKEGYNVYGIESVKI
row,Structure (SMILES),Emax at 125 µM [%]
1,Cc1ccc2nc(Cn3nc(C(F)(F)F)cc3Cl)cc(=O)n2c1[C@@H]1C[C@H]1C#N,66
2,N#C[C@@H]1C[C@H]1c1cc(C(F)(F)F)cc2nc(Cn3nc(C(F)(F)F)cc3Cl)cc(=O)n12,27
3,Cc1cc([C@@H]2C[C@H]2C#N)n2c(=O)cc(Cn3nc(C(F)(F)F)cc3Cl)nc2c1,86
4,CCNC(=O)c1c(C)ccc2nc(Cn3nc(C(F)(F)F)cc3Cl)cc(=O)n12,1
5,CCNC(=O)c1c(C)sc2nc(Cn3nc(C(F)(F)F)cc3Cl)cc(=O)n12,8

# Further lines, results first:
row,Emax at 125 µM [%],Structure (SMILES)
1,7,Cc1ccc2nc(Cn3nc(C(F)(F)F)cc3Cl)cc(=O)n2c1C1CC1
2,67,N#C[C@@H]1C[C@H]1c1c(F)ccc2nc(Cn3nc(C(F)(F)F)cc3Cl)cc(=O)n12

# Test system: MDR1 (human)
# Test: Efflux ratio of permeability from basolateral to apical over apical to basolateral side in MDCK cells expressing human MDR1
# Format: ADME, cell-based, Canis lupus familiaris
# Details: dog
row,efflux ratio,Structure (SMILES)
1,2,Cc1ccc2nc(Cn3nc(C(F)(F)F)cc3Cl)cc(=O)n2c1[C@@H]1C[C@H]1C#N
2,2.1,N#C[C@@H]1C[C@H]1c1cc(C(F)(F)F)cc2nc(Cn3nc(C(F)(F)F)cc3Cl)cc(=O)n12
3,2.2,Cc1cc([C@@H]2C[C@H]2C#N)n2c(=O)cc(Cn3nc(C(F)(F)F)cc3Cl)nc2c1
4,1.5,N#C[C@@H]1C[C@H]1c1c(F)ccc2nc(Cn3nc(C(F)(F)F)cc3Cl)cc(=O)n12

# Test system: not listed separately
# Test: Activity at AMPA receptor in mouse hippocampal brain slices assessed as electrical stimulation-induced excitatory post synaptic potential at -70 mV holding potential by electrophysiology method
# Format: ADME
# Details: not given
row,EC50 [nM],Structure (SMILES)
1,5700,N#C[C@@H]1C[C@H]1c1c(C(F)(F)F)sc2nc(Cn3nc(C(F)(F)F)cc3Cl)cc(=O)n12

# Biological target: T1, Glutamate receptor 2
# Test: Positive allosteric modulation of human GluA2 receptor flop isoform assessed as increase in glutamate-induced calcium flux at 125 uM measured at time interval of 5 mins in presence of saturating glycine by calcium dye-based fluorescence assay relative to glutamate
# Format: Functional, single protein
# Details: not given
row,Structure (SMILES),Emax at 125 µM [%]
1,Cc1ccc2nc(Cn3nc(C(F)(F)F)cc3Cl)cc(=O)n2c1[C@@H]1C[C@H]1C#N,63
2,N#C[C@@H]1C[C@H]1c1cc(C(F)(F)F)cc2nc(Cn3nc(C(F)(F)F)cc3Cl)cc(=O)n12,77
3,Cc1cc([C@@H]2C[C@H]2C#N)n2c(=O)cc(Cn3nc(C(F)(F)F)cc3Cl)nc2c1,83
4,CCNC(=O)c1c(C)ccc2nc(Cn3nc(C(F)(F)F)cc3Cl)cc(=O)n12,-1
5,CCNC(=O)c1c(C)sc2nc(Cn3nc(C(F)(F)F)cc3Cl)cc(=O)n12,16

# Other lines, results leading:
row,Emax at 125 µM [%],Structure (SMILES)
1,3,Cc1ccc2nc(Cn3nc(C(F)(F)F)cc3Cl)cc(=O)n2c1C1CC1
2,69,N#C[C@@H]1C[C@H]1c1c(F)ccc2nc(Cn3nc(C(F)(F)F)cc3Cl)cc(=O)n12

# Biological target: T1, Glutamate receptor 2
# Test: Positive allosteric modulation of human GluA2 receptor flop isoform assessed as increase in glutamate-induced calcium flux measured at time interval of 5 mins in presence of saturating glycine by calcium dye-based fluorescence assay
# Format: Functional, single protein
# Details: not given
row,Structure (SMILES),EC50 [nM]
1,Cc1ccc2nc(Cn3nc(C(F)(F)F)cc3Cl)cc(=O)n2c1[C@@H]1C[C@H]1C#N,31000
2,N#C[C@@H]1C[C@H]1c1cc(C(F)(F)F)cc2nc(Cn3nc(C(F)(F)F)cc3Cl)cc(=O)n12,16000
3,Cc1cc([C@@H]2C[C@H]2C#N)n2c(=O)cc(Cn3nc(C(F)(F)F)cc3Cl)nc2c1,210

# Second part, the molecule after the results:
row,EC50 [nM],Structure (SMILES)
1,2500,Cc1ccc2nc(Cn3nc(C(F)(F)F)cc3Cl)cc(=O)n2c1C1CC1
2,460,N#C[C@@H]1C[C@H]1c1c(F)ccc2nc(Cn3nc(C(F)(F)F)cc3Cl)cc(=O)n12

# Biological target: T2, Glutamate NMDA receptor; GRIN1/GRIN2A (Homo sapiens, UniProt Q05586+Q12879)
# Test: Positive allosteric modulation of GluN1/GluN2A receptor (unknown origin) expressed in CHO cells assessed as increase in glutamate-induced calcium flux measured at time interval of 5 mins in presence of saturating glycine by calcium dye-based fluorescence assay
# Format: cell-based
# Details: not given
row,Structure (SMILES),EC50 [nM]
1,Cc1ccc2nc(Cn3nc(C(F)(F)F)cc3Cl)cc(=O)n2c1[C@@H]1C[C@H]1C#N,41
2,CCNC(=O)c1c(C)ccc2nc(Cn3nc(C(F)(F)F)cc3Cl)cc(=O)n12,2500

# Next, values leading:
row,EC50 [nM],Structure (SMILES)
1,280,Cc1ccc2nc(Cn3nc(C(F)(F)F)cc3Cl)cc(=O)n2c1C1CC1
2,21,N#C[C@@H]1C[C@H]1c1c(F)ccc2nc(Cn3nc(C(F)(F)F)cc3Cl)cc(=O)n12

# Biological target: T2, Glutamate NMDA receptor; GRIN1/GRIN2A
# Test: Deactivation of GluN1/GluN2A receptor (unknown origin) expressed in CHO cells assessed as time constant for signal decay at 1 uM preincubated followed by glutamate addition in presence of saturating glycine measured after glutamate removal by electrophysiology method
# Format: cell-based
# Details: not given
row,TIME [h],Structure (SMILES)
1,0.000584,N#C[C@@H]1C[C@H]1c1c(C(F)(F)F)sc2nc(Cn3nc(C(F)(F)F)cc3Cl)cc(=O)n12

# Biological target: T2, Glutamate NMDA receptor; GRIN1/GRIN2A
# Test: Positive allosteric modulation of GluN1/GluN2A receptor (unknown origin) expressed in CHO cells assessed as increase in glutamate-induced calcium flux at 125 uM measured at time interval of 5 mins in presence of saturating glycine by calcium dye-based fluorescence assay relative to glutamate
# Format: cell-based
# Details: not given
row,Structure (SMILES),Emax [%]
1,Cc1ccc2nc(Cn3nc(C(F)(F)F)cc3Cl)cc(=O)n2c1[C@@H]1C[C@H]1C#N,137
2,N#C[C@@H]1C[C@H]1c1cc(C(F)(F)F)cc2nc(Cn3nc(C(F)(F)F)cc3Cl)cc(=O)n12,142
3,Cc1cc([C@@H]2C[C@H]2C#N)n2c(=O)cc(Cn3nc(C(F)(F)F)cc3Cl)nc2c1,144
4,CCNC(=O)c1c(C)ccc2nc(Cn3nc(C(F)(F)F)cc3Cl)cc(=O)n12,129
5,CCNC(=O)c1c(C)sc2nc(Cn3nc(C(F)(F)F)cc3Cl)cc(=O)n12,120

# Now from value to molecule:
row,Emax [%],Structure (SMILES)
1,107,Cc1ccc2nc(Cn3nc(C(F)(F)F)cc3Cl)cc(=O)n2c1C1CC1
2,151,N#C[C@@H]1C[C@H]1c1c(F)ccc2nc(Cn3nc(C(F)(F)F)cc3Cl)cc(=O)n12

# Biological target: T1, Glutamate receptor 2
# Test: Positive allosteric modulation of human GluA2 receptor flip isoform assessed as increase in glutamate-induced calcium flux measured at time interval of 5 mins in presence of saturating glycine by calcium dye-based fluorescence assay
# Format: Functional, single protein
# Details: not given
row,Structure (SMILES),EC50 [nM]
1,Cc1ccc2nc(Cn3nc(C(F)(F)F)cc3Cl)cc(=O)n2c1[C@@H]1C[C@H]1C#N,67000
2,N#C[C@@H]1C[C@H]1c1cc(C(F)(F)F)cc2nc(Cn3nc(C(F)(F)F)cc3Cl)cc(=O)n12,27000
3,Cc1cc([C@@H]2C[C@H]2C#N)n2c(=O)cc(Cn3nc(C(F)(F)F)cc3Cl)nc2c1,3100

# The next lines start with the values.
row,EC50 [nM],Structure (SMILES)
1,1300,Cc1ccc2nc(Cn3nc(C(F)(F)F)cc3Cl)cc(=O)n2c1C1CC1
2,3100,N#C[C@@H]1C[C@H]1c1c(F)ccc2nc(Cn3nc(C(F)(F)F)cc3Cl)cc(=O)n12
